In US10299502B2, “Method for producing an extract of a matrix of vegetable origin with a non-ionic amphiphilic compound as extraction adjuvant in an aqueous medium” (PIERRE FABRE DERMO-COSMETIQUE, priority 2015, dated 2019):

Key:
[1] = Solubilization curves (Sudan red, α-mangostin) to determine the minimum hydrotrope concentration; assay type: physicochemical; details: deduced from solubilization curves in aqueous solution
Description: The term “minimum hydrotrope concentration” refers to the concentration above which these non-ionic amphiphilic compounds begin to form aggregates, i.e., new microenvironments with physical properties different from those observed when the compound is diluted, and different from micellar behavior. This minimum hydrotrope concentration is specific to each non-ionic amphiphilic compound and generally has the order of magnitude of the molarity. It can be determined by several physicochemical methods, such as by measuring surface tension, conductivity or dynamic and static light scattering (Self-association of nicotinamide in aqueous solution: Light-scattering and vapor pressure osmometry studies (1996) 85(8): 848-853), or quite simply by establishing a solubilization curve of a lipophilic compound (solubilized solute content as a function of concentration of non-ionic amphiphilic compound). Sudan red, a lipophilic dye easily measured by spectrophotometry, can be used as reference. […]
The solubilization curves of Sudan red in aqueous solutions of various non-ionic amphiphilic compounds at different concentrations were prepared. After saturation of the solutions with Sudan red and filtration, the Sudan red content solubilized in each solution is measured after dilution by UV spectrophotometry at 476 nm. […]

[2] = Recovery of extracted α-mangostin by precipitation on dilution; assay type: physicochemical
Text: The extract thus obtained may also be diluted in a volume of water optionally supplemented with one or more adjuvants selected from salts, acids or bases, so as to be at a final concentration of non-ionic amphiphilic compound below the sufficient concentration defined above. Thus, it is possible to recover the lipophilic compounds by precipitation and solid-liquid separation such as filtration or centrifugation.
At 7% amyl xyloside, 100% of the α-mangostin extracted precipitates.

| MHC (minimum hydrotrope concentration) [1] | % of α-mangostin recovered by precipitation/α-mangostin extracted ([2]; extraction concentration 40%, concentration after dilution 7%) | % of α-mangostin recovered by precipitation/α-mangostin extracted ([2]; extraction concentration 40%, concentration after dilution 7%, listed as amyl xyloside) | % of α-mangostin recovered by precipitation/α-mangostin extracted ([2]; extraction concentration 40%, concentration after dilution 15%) | % of α-mangostin recovered by precipitation/α-mangostin extracted ([2]; extraction concentration 40%, concentration after dilution 15%, listed as amyl xyloside) | % of α-mangostin recovered by precipitation/α-mangostin extracted ([2]; extraction concentration 59%, concentration after dilution 24%) | Compound |
| --- | --- | --- | --- | --- | --- | --- |
| 5-10% | 100% | 100% | 12% | little α-mangostin precipitates |  | amyl xyloside |
|  |  |  |  |  | 66% | CC(C)(O)CCO [Isopentyldiol, 3-methyl-1,3-butanediol] |
